Measurements taken from US7005432B2, “Substituted imidazol-pyridazine derivatives” (Hoffman-La Roche Inc., priority 2002, dated 2006).
Structures can show the parent of a compound that is named as a salt.

These compounds were tested against T1, NMDA-receptor subtype 2B (Rattus norvegicus, UniProt P35439+Q00960) (assay: 3H-Ro 25-6981 binding (displacement) on rat brain membranes). Settings: displacement of 5 nM 3H-Ro 25-6981, rat whole brain (minus cerebellum and medulla oblongata) membranes, 2 hours at 4° C., Tris-HCl 50 mM pH 7.4.
T1 construct: Membranes were prepared by homogenization of the whole brain minus cerebellum and medulla oblongata; from tissue; host or cells: rat whole brain minus cerebellum and medulla oblongata (membranes)
T1 sequence (Q00960 27-1482, other chains not shown): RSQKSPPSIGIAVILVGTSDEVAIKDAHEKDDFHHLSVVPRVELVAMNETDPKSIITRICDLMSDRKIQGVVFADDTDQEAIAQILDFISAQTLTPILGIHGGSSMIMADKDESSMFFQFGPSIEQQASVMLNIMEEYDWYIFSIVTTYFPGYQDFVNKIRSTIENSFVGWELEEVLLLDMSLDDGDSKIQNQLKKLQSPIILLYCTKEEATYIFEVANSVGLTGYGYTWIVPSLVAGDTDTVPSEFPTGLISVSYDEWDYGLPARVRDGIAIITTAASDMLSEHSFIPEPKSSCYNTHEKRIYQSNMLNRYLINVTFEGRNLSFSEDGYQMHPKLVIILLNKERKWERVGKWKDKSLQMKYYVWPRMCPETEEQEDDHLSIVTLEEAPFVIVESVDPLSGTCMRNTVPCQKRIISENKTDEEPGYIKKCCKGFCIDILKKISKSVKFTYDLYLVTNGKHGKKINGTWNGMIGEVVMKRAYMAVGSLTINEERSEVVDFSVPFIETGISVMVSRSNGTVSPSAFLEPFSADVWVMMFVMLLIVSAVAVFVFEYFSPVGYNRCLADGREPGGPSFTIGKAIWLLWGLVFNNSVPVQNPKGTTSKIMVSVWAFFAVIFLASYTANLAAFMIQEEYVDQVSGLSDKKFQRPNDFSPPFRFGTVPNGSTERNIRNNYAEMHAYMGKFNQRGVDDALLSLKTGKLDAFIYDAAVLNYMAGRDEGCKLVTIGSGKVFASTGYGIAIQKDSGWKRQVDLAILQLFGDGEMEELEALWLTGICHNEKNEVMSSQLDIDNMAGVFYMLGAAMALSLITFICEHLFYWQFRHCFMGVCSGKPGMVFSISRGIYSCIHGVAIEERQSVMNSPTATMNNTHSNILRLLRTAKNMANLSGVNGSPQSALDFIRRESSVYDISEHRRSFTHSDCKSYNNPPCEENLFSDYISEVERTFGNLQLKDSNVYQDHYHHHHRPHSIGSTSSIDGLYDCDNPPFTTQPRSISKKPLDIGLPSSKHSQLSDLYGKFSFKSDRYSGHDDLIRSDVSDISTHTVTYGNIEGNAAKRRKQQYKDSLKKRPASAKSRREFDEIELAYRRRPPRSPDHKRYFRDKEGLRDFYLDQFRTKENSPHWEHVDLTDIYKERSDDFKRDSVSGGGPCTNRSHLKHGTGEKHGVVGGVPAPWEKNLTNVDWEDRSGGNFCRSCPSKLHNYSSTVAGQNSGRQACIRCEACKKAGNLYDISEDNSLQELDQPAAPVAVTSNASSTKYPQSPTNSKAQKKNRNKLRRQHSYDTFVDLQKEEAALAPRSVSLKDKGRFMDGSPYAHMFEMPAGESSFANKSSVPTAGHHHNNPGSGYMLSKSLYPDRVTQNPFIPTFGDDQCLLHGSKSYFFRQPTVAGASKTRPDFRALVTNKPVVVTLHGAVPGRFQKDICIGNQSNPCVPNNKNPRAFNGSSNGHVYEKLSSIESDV
Protocol: ^3H-Ro 25-6981 binding (Ro 25-6981 is [R-(R*,S*)]-α-(4-hydroxy-phenyl)-β-methyl-4-(phenyl-methyl)-1-piperidine propanol)
Male Füllinsdorf albino rats weighing between 150-200 g were used. Membranes were prepared by homogenization of the whole brain minus cerebellum and medulla oblongata with a Polytron (10.000 rpm, 30 seconds), in 25 volumes of a cold Tris-HCl 50 mM, EDTA 10 mM, pH 7.1 buffer. The homogenate was centrifuged at 48,000 g for 10 minutes at 4° C. The pellet was resuspended using the Polytron in the same volume of buffer and the homogenate was incubated at 37° C. for 10 minutes. After centrifugation the pellet was homogenized in the same buffer and frozen at −80° C. for at least 16 hours but not more than 10 days. For the binding assay the homogenate was thawed at 37° C., centrifuged and the pellet was washed three times as above in a Tris-HCl 5 mM, pH 7.4 cold buffer. The final pellet was resuspended in the same buffer and used at a final concentration of […].
^3H-Ro 25-6981 binding experiments were performed using a Tris-HCl 50 mM, pH 7.4 buffer. For displacement experiments 5 nM of ^3H-Ro 25-6981 were used and non specific binding was measured using 10 mM of tetrahydroisoquinoline and usually it accounts for 10% of the total. The incubation time was 2 hours at 4° C. and the assay was stopped by filtration on Whatmann GF/B glass fiber filters (Unifilter-96, Packard, Zürich, Switzerland). The filters were washed 5 times with cold buffer. The radioactivity on the filter was counted on a Packard Top-coullt microplate scintillation counter after addition of […] of microscint 40 (Canberra Packard S.A., Zürich, Switzerland).
The effects of compounds were measured using a minimum of 8 concentrations and repeated at least once. The pooled normalized values were analyzed using a non-linear regression calculation program which provide IC50 with their relative upper and lower 95% confidence limits.

Row | Compound | IC50 [nM]
1 | Cc1nccn1Cc1cc(-c2ccc(F)c(C(F)F)c2)cnn1 [Example 6, 5-(3-Difluoromethyl-4-fluoro-phenyl)-3-(2-methyl-imidazol-1-yl-methyl)-pyridazine hydrochloride] | 17
2 | Cc1nccn1Cc1cc(-c2ccc(F)c(C(F)(F)F)c2)cnn1 [Example 3, 5-(4-Fluoro-3-trifluoromethyl-phenyl)-3-(2-methyl-imidazol-1-yl-methyl)-pyridazine hydrochloride] | 38
3 | Cc1nccn1Cc1cc(-c2ccc(F)c(Cl)c2)cnn1 [Example 1, 5-(3-Chloro-4-fluoro-phenyl)-3-(2-methyl-imidazol-1-yl-methyl)-pyridazine Hydrochloride] | 21
4 | Cc1nccn1Cc1cc(-c2ccc(F)c(C(C)(F)F)c2)cnn1 [Example 11, 5-[3-(1,1-Difluoro-ethyl)-4-fluoro-phenyl]-3-(2-methyl-imidazol-1-yl-methyl)-pyridazine hydrochloride] | 29
5 | Cc1nccn1Cc1cc(-c2cc(F)cc(C(F)F)c2)cnn1 [Example 24, 5-(3-Difluoromethyl-5-fluoro-phenyl)-3-(2-methyl-imidazol-1-yl-methyl)-pyridazine hydrochloride] | 47
6 | Cc1nccn1Cc1cc(-c2ccc3ccccc3c2)cnn1 [Example 12, 3-(2-Methyl-imidazol-1-ylmethyl)-5-naphthalen-2-yl-pyridazine-hydrochloride] | 22
7 | Cc1nccn1Cc1cc(-c2cccc(C(C)(F)F)c2)cnn1 [Example 9, 5-[3-(1,1-Difluoro-ethyl)-phenyl]-3-(2-methyl-imidazol-1-yl-methyl)-pyridazine hydrochloride] | 34
8 | Cc1nccn1Cc1cc(-c2ccc(Cl)c(Cl)c2)cnn1 [Example 13, 5-(3,4-Dichloro-phenyl)-3-(2-methyl-imidazol-1-yl-methyl)-pyridazine hydrochloride] | 11
9 | 5-(3-Difluoromethyl-4-fluoro-phenyl)-3-(2-ethyl-imidazol-1-ylethyl)-pyridazine hydrochloride [Example 52] | 26
10 | Cc1nccn1Cc1cc(-c2ccc3sccc3c2)cnn1 [Example 15, 5-Benzo[b]thiophen-5-yl-3-(2-methyl-imidazol-1-yl-methyl)-pyridazine hydrochloride] | 16
11 | Cc1cc(-c2cnnc(Cn3ccnc3C)c2)ccc1F [Example 16, 5-(4-Fluoro-3-methyl-phenyl)-3-(2-methyl-imidazol-1-yl-methyl)-pyridazine hydrochloride] | 10
12 | Cc1nccn1Cc1cc(-c2cccc(C(F)F)c2)cnn1 [Example 25, 5-(3-Difluoromethyl-phenyl)-3-(2-methyl-imidazol-1-yl-methyl)-pyridazine hydrochloride] | 58
13 | Cc1nccn1Cc1cc(-c2cccc(C3CC3)c2)cnn1 [Example 14, 5-(3-Cyclopropyl-phenyl)-3-(2-methyl-imidazol-1-yl-methyl)-pyridazine hydrochloride] | 20
14 | Cc1nccn1Cc1cc(-c2ccc(Cl)c(C(F)(F)F)c2)cnn1 [Example 4, 5-(4-Chloro-3-trifluoromethyl-phenyl)-3-(2-methyl-imidazol-1-yl-methyl)-pyridazine hydrochloride] | 27

The next lines start with the values.

Row | IC50 [nM] | Compound
15 | 57 | Cc1nccn1Cc1cc(-c2ccc3c4c(cccc24)CC3)cnn1 [Example 45, 5-Acenaphthen-5-yl-3-(2-methyl-imidazol-1-yl-methyl)-pyridazine hydrochloride]
16 | 54 | COc1cc(-c2cnnc(Cn3ccnc3C)c2)cc(C(F)(F)F)c1 [Example 38, 5-(3-Methoxy-5-trifluoromethyl-phenyl)-3-(2-methyl-imidazol-1-yl-methyl)-pyridazine hydrochloride]
17 | 77 | COc1cccc2c(-c3cnnc(Cn4ccnc4C)c3)cccc12 [Example 36, 5-(5-Methoxy-naphthalen-1-yl)-3-(2-methyl-imidazol-1-yl-methyl)-pyridazine hydrochloride]
18 | 48 | Cc1nccn1Cc1cc(-c2cccc(C(C)C)c2)cnn1 [Example 42, 5-(3-Isopropyl-phenyl)-3-(2-methyl-imidazol-1-yl-methyl)-pyridazine hydrochloride]
19 | 41 | COc1cc(-c2cnnc(Cn3ccnc3C)c2)ccc1Cl [Example 41, 5-(4-Chloro-3-methoxy-phenyl)-3-(2-methyl-imidazol-1-yl-methyl)-pyridazine hydrochloride]
20 | 31 | Cc1nccn1Cc1cc(-c2cc(F)cc(C(C)(F)F)c2)cnn1 [Example 31, 5-[3-(1,1-Difluoro-ethyl)-5-fluoro-phenyl]-3-(2-methyl-imidazol-1-yl-methyl)-pyridazine hydrochloride]
21 | 44 | COc1ccc2cc(-c3cnnc(Cn4ccnc4C)c3)ccc2c1 [Example 27, 5-(6-Methoxy-naphthalen-2-yl)-3-(2-methyl-imidazol-1-yl-methyl)-pyridazine hydrochloride]
22 | 25 | Cc1nccn1Cc1cc(-c2cccc3ccccc23)cnn1 [Example 35, 3-(2-Methyl-imidazol-1-yl-methyl)-5-naphthalen-1-yl-pyridazine hydrochloride]
23 | 12 | Cc1nccn1Cc1cc(-c2ccc(Cl)c(C(F)F)c2)cnn1 [Example 26, 5-(4-Chloro-3-difluoromethyl-phenyl)-3-(2-methyl-imidazol-1-yl-methyl)-pyridazine hydrochloride]
24 | 35 | COc1ccc2ccc(-c3cnnc(Cn4ccnc4C)c3)cc2c1 [Example 48, 5-(7-Methoxy-naphthalen-2-yl)-3-(2-methyl-imidazol-1-yl-methyl)-pyridazine hydrochloride]
25 | 29 | Cc1nccn1Cc1cc(-c2ccc(F)c3ccccc23)cnn1 [Example 50, 5-(4-Fluoro-naphthalen-1-yl)-3-(2-methyl-imidazol-1-yl-methyl)-pyridazine hydrochloride]
26 | 7 | Cc1cc(-c2cnnc(Cn3ccnc3C)c2)ccc1Cl [Example 30, 5-(4-Chloro-3-methyl-phenyl)-3-(2-methyl-imidazol-1-yl-methyl)-pyridazine hydrochloride]
27 | 24 | Cc1nccn1Cc1cc(-c2ccc(Cl)c(C(C)(F)F)c2)cnn1 [Example 39, 5-[4-Chloro-3-(1,1-difluoro-ethyl)-phenyl]-3-(2-methyl-imidazol-1-yl-methyl)-pyridazine hydrochloride]
28 | 27 | Cc1nccn1Cc1cc(C2=Cc3ccccc3CC2)cnn1 [Example 68, 5-(3,4-Dihydro-naphthalen-2-yl)-3-(2-methyl-imidazol-1-yl-methyl)-pyridazine hydrochloride]
29 | 37 | Cc1nccn1Cc1cc(-c2cccc(C(F)(F)F)c2F)cnn1 [Example 58, 5-(2-Fluoro-3-trifluoromethyl-phenyl)-3-(2-methyl-imidazol-1-yl-methyl)-pyridazine hydrochloride]
30 | 34 | COc1cc(-c2cnnc(Cn3ccnc3C)c2)c2ccccc2c1 [Example 49, 5-(3-Methoxy-naphthalen-1-yl)-3-(2-methyl-imidazol-1-yl-methyl)-pyridazine hydrochloride]
31 | 68 | Cc1nccn1Cc1cc(-c2cccc(C(C)(C)C)c2)cnn1 [Example 34, 5-(3-tert-Butyl-phenyl)-3-(2-methyl-imidazol-1-yl-methyl)-pyridazine hydrochloride]
